Consider 1 molecule from patent US20030073117A1, “Novel protein and gene encoding the protein” (Daiichi Pharmaceutical Co., Ltd., priority 2000, published 2003).

For assay [1], the target named is T1, SAC1 (Mus musculus, UniProt Q9EPK8).
T1 construct: the region containing the full length was amplified by PCR using primer set (A13st1 and mA13end1); expressed in transfected cells; host or cells: CHO cells, transient co-transfection of SAC1 in pCMV-SPORT with pEGFP-N1 as a separate marker plasmid
Briefly: Single channel analysis (patch clamp) of SAC1 expression cells under negative pressure. In kind it is cell-based. As to the method: (§1) The plasmid (pEGFP-N1; Clonetech Co.) expressing a green fluorescent protein was used as a marker for transfection. For the transient expression of protein, CHO cells were cultured in a HamF-12 culture medium (Gibco-BRL Co.) supplemented with 10% fetal bovine serum, 100 U/ml penicillin, and 100 μg/ml streptomycin. On the day before transformation, CHO cells (10^5 cells) were seeded to a 35 mm dish in which a cover slip coated with rat tail collagen was placed. […] The electrophysiological test was started after 24 hours and the fluorescence measurement was carried out 48 hours after the transfection.
Patch clamp recordings were carried out according to the method described in a previous paper (Suzuki, M., Sato, J., Kutsuwada, K., Ooki, G. and Imai, M. (1999) J. Biol. Chem. 274, 6330-5). GFP positive cells were visualized by a fluorescence measurement with an emission of 490 nm (CAM 2000 system; Jusco Co., Ltd.). […] In single channel analysis, the current was recorded with an EPC-7 patch clamp amplifier (List-Electronic Co., Ltd.) and stored on a DAT recorder (DAT-200; Sony Corp.) at 10 KHz. […] The data were analyzed using Igor ver. […] To analyze the open probability in the presence of GdCl3, single channel amplitude was set for those without reagent and the mean open probability (Po) was determined by the records during 10 seconds. […]

The target in assay [2] is T1, SAC1. Briefly: Fluorescence measurement (fura-2) of SAC1 expression cells under touch stress. To be noted: SAC1 expression CHO cells (GFP positive), touched by glass pipette, added Gd^3+; no added Gd^3+ gave 12.8 ± 1.4, control cells 4.5 ± 3.8. In kind it is cell-based. As to the method: as §1, with “placed. On the next day, SAC1 plasmid (1 μg) in PCMV-SPORT (Gibco-BRL Co.) and pEGFP-N1 (1 μg) were added per one transfection to a mixture of serum-free medium (97 μl) and FuGENE6 (Roche, 3 μl) which had been incubated for 5 minutes at room temperature.” for “placed.”
For 2-3 hours prior to start of the test, the transformed cells were incubated with 10 μM fura-2AM (Dojin Co.) dissolved in a serum-free culture medium. GFP fluorescence at 480 nm and fura-2 fluorescence at 360/380 nm were visualized by a manual exchange of dichroic Olympus system mirrors (Merlin Co.). Images for the fluorescence at 480 nm and fluorescence at 360/380 nm were obtained every two seconds. The fluorescence intensity of the objective area was calculated for analysis. […]

T1 sequence (Q9EPK8 whole entry): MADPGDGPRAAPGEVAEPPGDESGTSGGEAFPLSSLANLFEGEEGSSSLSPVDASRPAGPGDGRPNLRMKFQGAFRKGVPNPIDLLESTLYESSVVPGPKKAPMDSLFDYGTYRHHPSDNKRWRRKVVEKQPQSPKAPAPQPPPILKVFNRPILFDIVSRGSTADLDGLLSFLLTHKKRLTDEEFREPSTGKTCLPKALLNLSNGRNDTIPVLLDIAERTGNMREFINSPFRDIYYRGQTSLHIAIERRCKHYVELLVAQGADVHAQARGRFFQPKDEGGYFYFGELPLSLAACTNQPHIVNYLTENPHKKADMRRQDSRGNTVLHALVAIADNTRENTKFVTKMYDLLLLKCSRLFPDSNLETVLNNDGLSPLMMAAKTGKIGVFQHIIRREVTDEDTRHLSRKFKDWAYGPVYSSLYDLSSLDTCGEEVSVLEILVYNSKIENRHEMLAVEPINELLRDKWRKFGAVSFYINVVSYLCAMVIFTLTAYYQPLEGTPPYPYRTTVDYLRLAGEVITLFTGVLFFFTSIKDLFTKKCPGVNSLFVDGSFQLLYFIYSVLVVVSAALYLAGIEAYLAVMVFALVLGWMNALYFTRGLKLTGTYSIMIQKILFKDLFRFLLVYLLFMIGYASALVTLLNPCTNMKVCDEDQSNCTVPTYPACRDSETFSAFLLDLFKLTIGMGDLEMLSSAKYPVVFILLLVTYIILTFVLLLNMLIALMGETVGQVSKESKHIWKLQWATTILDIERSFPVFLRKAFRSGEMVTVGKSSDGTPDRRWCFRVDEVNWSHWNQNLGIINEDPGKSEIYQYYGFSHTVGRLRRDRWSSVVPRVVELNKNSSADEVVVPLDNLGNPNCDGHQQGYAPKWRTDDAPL

In the case of `[Cl][Gd]([Cl])[Cl]` [Gd^3+, GdCl3], the “response (mean open probability Po) to negative pressure” value on SAC1 [1] (0.5 μM GdCl3 added to the pipette, cell-attached, FIG. 3C) is recorded as “not affected”. Besides, the “effect on single channel activated by negative pressure” value on SAC1 [1] (transformed cells that express SAC1) is “blocked”. In addition, the “change of the fura-2 fluorescence ratio (360 nm/380 nm) on mechanical stimulus” value at SAC1 [2] is given as 4.8 ± 1.4 (10).
